Data reported in patent US10736902B2, “Method of treating triple negative breast cancer” (GEISTLICH PHARMA AG, priority 2016, dated 2020).
Read-outs that look alike come from different tables or passages of the source.

Columns and labels:
[1] = system: tumor stem cells; test: Tumor stem cell killing in tissue culture in vitro; type: cell-based
[2] = system: human peripheral blood monocytes; test: Safety in non-neoplastic cells: cell death of monocytes; type: cell-based; settings: for cell death in human peripheral blood monocytes: 100 microMol up to 5000 microMol; for effect on peripherally derived human monocytes: high doses (5 mM), after 24 hours (FIG. 7B)
[3] = system: ER negative breast cancer cells (BT-20 and MDA-MB-231) and ER positive cells (BT-474 and MCF-7); test: Apoptosis/necrosis (annexin V / propidium iodide) and ROS in breast cancer cells; type: cell-based; settings: for dose dependence of cell death: ER-positive and ER-negative breast cancer cells, increasing concentrations, most pronounced with TNBC cells; for generation of ROS: substantially reduced by NAC, significantly increased with BSO
Experimental: Methods: Primary and metastatic ER negative breast cancer cells (BT-20 and MDA-MB-231) and ER positive cells (BT-474 and MCF-7) were separately treated with increasing concentrations of Taurolidine and 2250 as shown in FIG. 7A and FIG. 8A. Apoptosis and necrosis were evaluated based on phosphatidylserine externalization using annexin V and propidium iodide (PI). The contribution of caspases 3, 8 and 9 on apoptosis, and autophagy was evaluated by both flow cytometry and western blotting. The impact of reactive oxygen species (ROS) was evaluated using the radical scavenger agent n-acetylcysteine (NAC) and buthionine-sulfoximine (BSO), a glutathione-depleting agent. Necroptosis was evaluated using nescrostatin-1, a potent inhibitor of the process.

[4] = Half-life in human fresh blood at 37° C.; type: in vitro ADME; settings: for half-life: human, fresh whole blood
Experimental: The half-life of 2250 was measured in human fresh blood at 37° C.

[5] = Water solubility / isotonicity; type: physicochemical
[6] = Wound healing after administration during or after surgery; settings: administered during surgery and immediately after surgery

| SMILES | killing of tumor stem cells [1] | cell death in human peripheral blood monocytes [2] | effect on peripherally derived human monocytes [2] | concentration effective at killing tumor stem cells ([1]; tissue culture in vitro) | dose dependence of cell death [3] | generation of ROS [3] | half-life ([4]; human blood, same test, read-out: half-life in human blood) | solubility in water ([5]; no PVP necessary) | concentration of isotonic solution ([5]; solution) | effect on wound healing [6] | Concentration of 2250 measured ([4]; human fresh blood, 37° C., 0-1 hours) | Concentration of 2250 measured ([4]; human fresh blood, 37° C., 2 hours) | half-life ([4]; human blood, read-out: half-life in human blood) | half-life ([4]; human fresh blood, 37° C., calculated from measured concentrations, read-out: half-life (calculated) (converted)) |
| --- | --- | --- | --- | --- | --- | --- | --- | --- | --- | --- | --- | --- | --- | --- |
| O=S1(=O)CCNCN1 [taurultam] | kill tumor stem cells | – | – | – | – | – | – | – | – | – | – | – | – | – |
| O=S1(=O)CCN(CN2CCS(=O)(=O)NC2)CN1 [taurolidine, reference compound] | kill tumor stem cells | did not induce any significant cell death | no significant effect | 0.01 µg/mL | Dose-dependent increases in cell death | induced generation of ROS | ~30 min | – | – | – | – | – | – | – |
| O=S1(=O)CCOCN1 [C-2250, Tetrahydro1,4,5-oxathiazin-4-dioxide] | – | did not induce any significant cell death | no significant effect | – | Dose-dependent increases in cell death | induced generation of ROS | – | very soluble in water | 3.2% | do not hinder wound healing | 50 ppm | 47.7 ppm | > 1440 min | ~2400 min |
